For data set [1] the following is noted: cited from earlier work.
For data set [2] the following is noted: n-octanol and aqueous buffer solution of pH 8.1; cited from earlier work.
Data set [3] can be described thus: Determination of solubility in artificial gastric juice. Type of data set: physicochemical. The settings on record: 2 hours; for Solubility: artificial gastric juice, 37° C., pH 1.2. As for the experimental part: Excess of itraconazole from Example 1 and conventional itraconazole prepared without dissolution-induced drying were added to artificial gastric juice of pH 1.2 and shaken at 37° C. for 2 hours, respectively. Each of the mixture were filtered through a membrane filter with pore diameter of […] and each of the filtrate was subjected to high-performance liquid chromatography, thereby obtaining gastric juice solubility.

In brackets after ≈: the same amount, converted by molar mass.

`CCC(C)n1ncn(-c2ccc(N3CCN(c4ccc(OCC5COC(Cn6cncn6)(c6ccc(Cl)cc6Cl)O5)cc4)CC3)cc2)c1=O` (racemic) [Itraconazole, itraconazole]: the Solubility in water entry in data set [1] is “less than 1 μg/ml”. Moreover, the log partition coefficient in data set [2] is given as 5.66.

What is called Solubility is the dissolved amount per volume that the medium holds. A lower Solubility goes with a poorly soluble substance. In the case of `CCC(C)n1ncn(-c2ccc(N3CCN(c4ccc(OCC5COC(Cn6cncn6)(c6ccc(Cl)cc6Cl)O5)cc4)CC3)cc2)c1=O` (centres unmarked) [Itraconazole of Example 1, itraconazole], in data set [3] (artificial gastric juice pH 1.2, 37° C.), the “Solubility relative to itraconazole without dissolution-induced drying” value is listed as 62 times. The same molecule returned a Solubility in data set [3] of 218.6 µg/mL (≈ 310 µM).

Turning to `CCC(C)n1ncn(-c2ccc(N3CCN(c4ccc(OCC5COC(Cn6cncn6)(c6ccc(Cl)cc6Cl)O5)cc4)CC3)cc2)c1=O` (centres unmarked) [The conventional itraconazole without dissolution-induced dr], the Solubility in data set [3] worked out at 3.5 µg/mL (≈ 4.96 µM).

Source of the values: patent publication US6346533B1, “Intraconazole exhibiting an improved solubility, a method of preparing the same and a pharmaceutical composition for oral administration comprising the same” (Dong-A Pharmaceutical Co., Ltd., priority 1997, dated 2002).
